The Kd is the free concentration of one partner at which half of the binding sites on the other are occupied at equilibrium, for simple one-to-one binding.

*1 amine or outer side, *2 acyl side, *3 side chain or, on linkers, in order; H or OH if unused. Where a SMILES comes first, the peptide text is derived from it. Bridges are numbered along the chain shown (N, C = ends). [ ]: non-standard residue; d: D form. The star is where a group is joined. ξ: configuration not given here. X10 = O=C(O)CN1CCN(CC(=O)O)CCN(CC(=O)NC2CCC(CC(=O)*)CC2)CCN(CC(=O)O)CC1; Ala(piperidin-4-yl) = O=C([C@H](CC1CCN([*:3])CC1)N[*:1])[*:2]; DOTA = O=C(O)CN1CCN(CC(=O)O)CCN(CC(=O)*)CCN(CC(=O)O)CC1; X2 = O=C(Cc1ccc(I)cc1)NCCOCCOCCOCCOCCOCCOCCOCCOCC(=O)*; Phe(4-CF3) = N[C@@H](Cc1ccc(C(F)(F)F)cc1)C(=O)O; Ala(morpholin-4-yl) = N[C@@H](CN1CCOCC1)C(=O)O; 2Nal = N[C@@H](Cc1ccc2ccccc2c1)C(=O)O; NMetBuAla = CN[C@@H](CC(C)(C)C)C(=O)O; Gly(4-THP) = N[C@H](C(=O)O)C1CCOCC1; NMeT = CN[C@H](C(=O)O)[C@@H](C)O; NMeN = CN[C@@H](CC(N)=O)C(=O)O; Chg = N[C@H](C(=O)O)C1CCCCC1; ξN = NC(=O)CC(N)C(=O)O; CH2 = C([*:1])[*:2]

One assay concerns the target T1, DLL3 (Homo sapiens, UniProt Q9NYJ7).
T1 sequence (Q9NYJ7 27-618): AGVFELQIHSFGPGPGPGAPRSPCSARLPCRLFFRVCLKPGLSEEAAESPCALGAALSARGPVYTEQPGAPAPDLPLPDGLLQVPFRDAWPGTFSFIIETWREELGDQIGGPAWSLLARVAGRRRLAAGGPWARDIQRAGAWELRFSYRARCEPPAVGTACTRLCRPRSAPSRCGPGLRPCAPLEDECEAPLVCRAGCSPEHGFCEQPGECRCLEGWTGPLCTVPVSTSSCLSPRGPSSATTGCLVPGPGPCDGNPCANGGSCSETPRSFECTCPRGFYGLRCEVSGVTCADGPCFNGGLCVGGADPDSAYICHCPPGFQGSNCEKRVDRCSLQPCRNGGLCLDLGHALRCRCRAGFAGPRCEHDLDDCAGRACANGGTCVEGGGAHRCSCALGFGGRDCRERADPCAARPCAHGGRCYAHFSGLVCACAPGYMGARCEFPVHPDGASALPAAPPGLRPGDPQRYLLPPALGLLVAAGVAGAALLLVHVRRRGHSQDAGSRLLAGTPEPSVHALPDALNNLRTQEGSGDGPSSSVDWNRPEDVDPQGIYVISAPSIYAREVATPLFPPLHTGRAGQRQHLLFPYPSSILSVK
The assay is described as follows: SPR KD, biotinylated human DLL3 on streptavidin chip (Table 8). Also on record: biotin (biotinylated). As to conditions: SPR KD, biotinylated human DLL3 on streptavidin sensor chip, 25° C., 1:1 binding model. The text has this: Biotinylated target ligand human DLL3 was immobilized on a streptavidin sensor chip. A reference surface was set up for nonspecific binding and refractive index changes. […] Sensorgram curves were fitted with 1:1 binding model, and affinity and kinetic parameters were obtained using Biacore Insight evaluation 4.0. software.
In turn, `CC(=O)N[C@@H](Cc1c[nH]c2ccccc12)C(=O)N[C@H](C(=O)N[C@H](C(=O)N[C@H]1CSSC[C@@H](C(=O)N[C@@H](Cc2c[nH]c3ccccc23)C(=O)N2CCC[C@H]2C(N)=O)NC(=O)[C@H](CC(=O)O)NC(=O)[C@H](CCCCNC(=O)CN2CCN(CC(=O)O)CCN(CC(=O)O)CCN(CC(=O)O)CC2)NC(=O)[C@H](Cc2ccc3ccccc3c2)NC(=O)[C@H](CC(N)=O)NC(=O)[C@H](CN2CCOCC2)NC1=O)C1CCCCC1)[C@@H](C)O` [compound 325, Ac-W-T-(Chg)-C(3)-[3-(1-morpholinyl)-Ala]-N-(2Nal)-Lys(DOTA)-D-C(3)-W-P-CONH2] (Ac-WT[Chg]C[Ala(morpholin-4-yl)]N[2Nal]K(DOTA)DCWP-NH2; disulfide 4-10) yielded a Kd of under 1 nM.

`CC(=O)N[C@@H](Cc1c[nH]c2ccccc12)C(=O)N[C@H](C(=O)N[C@H](C(=O)N[C@H]1CSSC[C@@H](C(=O)N[C@@H](Cc2c[nH]c3ccccc23)C(=O)N2CCC[C@H]2C(=O)N[C@H](CCCCNC(=O)COCCOCCOCCOCCOCCOCCOCCOCCNC(=O)Cc2ccc(I)cc2)C(N)=O)NC(=O)[C@H](CC(=O)O)NC(=O)[C@H](CCCCNC(=O)CN2CCN(CC(=O)O)CCN(CC(=O)O)CCN(CC(=O)O)CC2)NC(=O)[C@H](Cc2ccc3ccccc3c2)NC(=O)[C@H](CC(N)=O)NC(=O)[C@H](CC2CCNCC2)NC1=O)C1CCCCC1)[C@@H](C)O` [compound 420] (Ac-WT[Chg]C[Ala(piperidin-4-yl)]N[2Nal]K(DOTA)DCWP[dK](X2)-NH2; disulfide 4-10) had a Kd of under 1 nM.

The assay is the same for the next values; noted with them: biotinylated human DLL3 on streptavidin sensor chip, 25° C., 1:1 binding model; read-out: SPR KD.
For the compound `CC[C@H](C)[C@H](NC(=O)[C@@H](NC(=O)[C@H](Cc1c[nH]c2ccccc12)NC(C)=O)[C@@H](C)O)C(=O)N[C@H]1CSSC[C@@H](C(=O)N[C@@H](Cc2c[nH]c3ccccc23)C(=O)N2CCC[C@H]2C(=O)O)NC(=O)[C@H](CC(=O)O)NC(=O)[C@H](Cc2c[nH]cn2)NC(=O)[C@H](Cc2c[nH]c3ccccc23)NC(=O)[C@H](CC(=O)O)NC(=O)[C@H](CC(N)=O)N(C)C1=O` [compound 384, Ac-W-T-I-C(3)-(NmeN)-N-W-H-D-C(3)-W-P-CONH2] (Ac-WTIC[NMeN]DWHDCWP-OH; disulfide 4-10), the Kd fell in the range of 10 to 100 nM.

For `CCC(C)(C)[C@H](NC(=O)[C@@H](NC(=O)[C@H](Cc1c[nH]c2ccccc12)NC(C)=O)[C@@H](C)O)C(=O)N[C@H]1CSSC[C@@H](C(=O)N[C@@H](Cc2c[nH]c3ccccc23)C(=O)N2CCC[C@H]2C(N)=O)NC(=O)[C@H](CC(=O)O)NC(=O)[C@H](CCCCNC(=O)CN2CCN(CC(=O)O)CCN(CC(=O)O)CCN(CC(=O)O)CC2)NC(=O)[C@H](Cc2ccc3ccccc3c2)NC(=O)[C@H](CC(N)=O)NC(=O)C(CN2CCOCC2)NC1=O` (single isomer, unassigned) [compound 311, Ac-W-T-(α-tert-amylGly)-C(3)-[3-(1-morpholinyl)-Ala]-N-(2Nal)-Lys(DOTA)-D-C(3)-W-P-CONH2], the Kd was under 1 nM.

For the compound `CC[C@H](C)[C@H](NC(=O)[C@@H](NC(=O)[C@H](Cc1c[nH]c2ccccc12)NC(C)=O)[C@@H](C)O)C(=O)N[C@H]1CSSC[C@@H](C(=O)N[C@@H](Cc2c[nH]c3ccccc23)C(=O)N2CCC[C@H]2C(N)=O)NC(=O)[C@H](CC(=O)O)NC(=O)[C@H](Cc2c[nH]cn2)NC(=O)[C@H](Cc2ccc(C(F)(F)F)cc2)NC(=O)[C@H](CC(N)=O)NC(=O)[C@H](CC(N)=O)NC1=O` [compound 50, Ac-W-T-I-C(3)-N-N-(4CF3-F)-H-D-C(3)-W-P-CONH2] (Ac-WTICNN[Phe(4-CF3)]HDCWP-NH2; disulfide 4-10), the Kd is 1 to 10 nM.

For the compound `CC(=O)N[C@@H](Cc1c[nH]c2ccccc12)C(=O)N[C@H](C(=O)N[C@@H](CC(C)(C)C)C(=O)N[C@H]1CSSC[C@@H](C(=O)N[C@@H](Cc2c[nH]c3ccccc23)C(=O)N2CCC[C@H]2C(N)=O)NC(=O)[C@H](CC(=O)O)NC(=O)[C@H](CCCCNC(=O)CN2CCN(CC(=O)O)CCN(CC(=O)O)CCN(CC(=O)O)CC2)NC(=O)[C@H](Cc2ccc3ccccc3c2)NC(=O)[C@H](CC(N)=O)NC(=O)C(CN2CCOCC2)NC1=O)[C@@H](C)O` (single isomer, unassigned) [compound 305, Ac-W-T-(t-Bu-Ala)-C(3)-[3-(1-morpholinyl)-Ala]-N-(2Nal)-Lys(DOTA)-D-C(3)-W-P-CONH2], the Kd is under 1 nM.

Regarding `CC(=O)N[C@@H](Cc1c[nH]c2ccccc12)C(=O)N[C@H](C(=O)N(C)[C@@H](CC(C)(C)C)C(=O)N[C@H]1CSSC[C@@H](C(=O)N[C@@H](Cc2c[nH]c3ccccc23)C(=O)N2CCC[C@H]2C(N)=O)NC(=O)[C@H](CC(=O)O)NC(=O)[C@H](CCCCNC(=O)CN2CCN(CC(=O)O)CCN(CC(=O)O)CCN(CC(=O)O)CC2)NC(=O)[C@H](Cc2ccc3ccccc3c2)NC(=O)[C@H](CC(N)=O)NC(=O)[C@H](CC2CCNCC2)NC1=O)[C@@H](C)O` [compound 419, Ac-W-T-(NMe-tBuAla)-C(3)-[3-(4piperdinyl)-Ala]-N-(2Nal)-Lys(DOTA)-D-C(3)-W-P-CONH2] (Ac-WT[NMetBuAla]C[Ala(piperidin-4-yl)]N[2Nal]K(DOTA)DCWP-NH2; disulfide 4-10), the Kd was under 1 nM.

As for `CC(=O)N[C@@H](Cc1c[nH]c2ccccc12)C(=O)N[C@H](C(=O)N[C@H](C(=O)N[C@H]1CSCSC[C@@H](C(=O)N[C@@H](Cc2c[nH]c3ccccc23)C(=O)N2CCC[C@H]2C(N)=O)NC(=O)[C@H](CC(=O)O)NC(=O)[C@H](CCCCNC(=O)CC2CCC(NC(=O)CN3CCN(CC(=O)O)CCN(CC(=O)O)CCN(CC(=O)O)CC3)CC2)NC(=O)[C@H](Cc2ccc3ccccc3c2)NC(=O)C(CC(N)=O)NC(=O)[C@H](CC2CCNCC2)NC1=O)C1CCCCC1)[C@@H](C)O` (stereo partly drawn) [compound 432, Ac-W-T-(Chg)-C(1)-[3-(4-piperidinyl)-Ala]-N-(2Nal)-Lys(Chx-DOTA)-D-C(1)-W-P-CONH2] (Ac-WT[Chg]C[Ala(piperidin-4-yl)][ξN][2Nal]K(X10)DCWP-NH2; linker 4-10 via CH2), the Kd is under 1 nM.

Consider `CC(=O)N[C@@H](Cc1c[nH]c2ccccc12)C(=O)N[C@H](C(=O)N[C@H](C(=O)N[C@H]1CSSC[C@@H](C(=O)N[C@@H](Cc2c[nH]c3ccccc23)C(=O)N2CCC[C@H]2C(N)=O)NC(=O)[C@H](C)NC(=O)[C@@H](CCCCNC(=O)CN2CCN(CC(=O)O)CCN(CC(=O)O)CCN(CC(=O)O)CC2)NC(=O)[C@H](Cc2ccc3ccccc3c2)NC(=O)[C@H](CC(N)=O)NC(=O)[C@H](CC2CCNCC2)NC1=O)C1CCOCC1)[C@@H](C)O` [compound 327, Ac-W-T-(THPG)-C(3)-[3-(4-piperidinyl)-Ala]-N-(2Nal)-Lys(DOTA)-(Ala)-C(3)-W-P-CONH2] (Ac-WT[Gly(4-THP)]C[Ala(piperidin-4-yl)]N[2Nal][dK](DOTA)ACWP-NH2; disulfide 4-10), for which the Kd was under 1 nM.

With `CC[C@H](C)[C@H](NC(=O)[C@H]([C@@H](C)O)N(C)C(=O)[C@H](Cc1c[nH]c2ccccc12)NC(C)=O)C(=O)N[C@H]1CSSC[C@@H](C(=O)N[C@@H](Cc2c[nH]c3ccccc23)C(=O)N2CCC[C@H]2C(N)=O)NC(=O)[C@H](CC(=O)O)NC(=O)[C@H](Cc2cnc[nH]2)NC(=O)[C@H](Cc2c[nH]c3ccccc23)NC(=O)[C@H](CC(N)=O)NC(=O)[C@H](CC(N)=O)NC1=O` [compound 383, Ac-W-(NmeT)-I-C(3)-N-N-W-H-D-C(3)-W-P-CONH2] (Ac-W[NMeT]ICNNWHDCWP-NH2; disulfide 4-10), the Kd lay in the range of 100 to 300 nM.

With `CC[C@H](C)[C@H](NC(=O)[C@@H](NC(=O)[C@H](Cc1c[nH]c2ccccc12)NC(C)=O)[C@@H](C)O)C(=O)N[C@H]1CSCSC[C@@H](C(=O)N[C@@H](Cc2c[nH]c3ccccc23)C(=O)N2CCC[C@H]2C(N)=O)NC(=O)[C@H](CC(=O)O)NC(=O)[C@H](Cc2cnc[nH]2)NC(=O)[C@H](Cc2c[nH]c3ccccc23)NC(=O)[C@H](CC(N)=O)NC(=O)[C@H](CC(N)=O)NC1=O` [compound 343] (Ac-WTICNNWHDCWP-NH2; linker 4-10 via CH2), the Kd lay within 10 to 100 nM.

As to `CC[C@H](C)[C@H](NC(=O)[C@@H](NC(=O)[C@H](Cc1ccc2ccccc2c1)NC(C)=O)[C@@H](C)O)C(=O)N[C@H]1CSSC[C@@H](C(=O)N[C@@H](Cc2c[nH]c3ccccc23)C(=O)N2CCC[C@H]2C(N)=O)NC(=O)[C@H](CC(=O)O)NC(=O)[C@H](Cc2cnc[nH]2)NC(=O)[C@H](Cc2c[nH]c3ccccc23)NC(=O)[C@H](CC(N)=O)NC(=O)[C@H](CC(N)=O)NC1=O` [compound 26, Ac-(2Nal)-T-I-C(3)-N-N-W-H-D-C(3)-W-P-CONH2] (Ac-[2Nal]TICNNWHDCWP-NH2; disulfide 4-10), the Kd fell in the range of 10 to 100 nM.

Values taken from patent US20250049970A1, “DLL3 TARGETING PEPTIDES AND CONSTRUCTS THEREOF” (MARIANA ONCOLOGY INC., priority 2023, published 2025).
